By LD50 is commonly meant the dose at which mortality reaches 50%.

Data set [1] deals with ulcers in rats at the stomach level. The experiment in a line: Anti-ulcer activity, Shay method (pylorus ligature in rats). Conditions: oral, about 16 hours after treatment. The format is in vivo. The text has this: (1) Determination of Anti-Ulcer Activity
The method used is described by SHAY et al. in Gastroenterology, 5, 43 (1945).
The Shay method consists of inducing ulcers in rats at the stomach level by ligature of the pylorus.
The animals are anesthetized with ether. A longitudinal incision is made about 1 cm below the sternum, the glandular part of the stomach and the duodenum are exposed, and a ligature is placed several mm below the pylorus. The muscular sheet is left as it is, and the skin is sutured with two clips.
As soon as possible afterwards, the animals receive the dispersive or the substance to be studied via the mouth in a volume of 0.5 ml/100 g and are kept without food or drink until sacrificed by carotid bleeding, which takes place about 16 hours after the treatment.
Before removing the stomach, a ligature is placed above the cardia.
The gastric liquid is collected in order to measure the pH.
The stomach is then opened along the major curvature, rinsed with physiological serum, and spread out on millimeter paper to be examined under a binocular magnifier.
The severity of the lesions is evaluated macroscopically and graded from 0 to 4 for each stomach.
The mean intensity of ulcerations is determined for each group of rats, and the protection is calculated by taking the ratio of the mean index of the treated group to the mean index of the control group.
The value of the gastric pH for the treated and control animals are likewise determined.

Data set [2] is described as follows: Determination of acute toxicity (LD50, oral, mice). As to conditions: mouse, in vivo, oral administration. As for the experimental part: (2) Determination of Acute Toxicity
The lethal dose, LD50, of the compounds of Examples 1-8 was evaluated in mice after oral administration.

Setting [3] is: Rattus norvegicus, 0.8 mg/kg, read-out: Ulcerations % of protection with respect to controls.
The mark [4] stands for this setting: Rattus norvegicus, 4 mg/kg, read-out: Ulcerations % of protection with respect to controls.
The mark [5] stands for this setting: Rattus norvegicus, 20 mg/kg, read-out: Ulcerations % of protection with respect to controls.
Setting [6] is: Rattus norvegicus, 0.4 mg/kg, read-out: Ulcerations % of protection with respect to controls.
Setting [7] is: Rattus norvegicus, 2 mg/kg, read-out: Ulcerations % of protection with respect to controls.
Setting [8] is: Rattus norvegicus, 10 mg/kg, read-out: Ulcerations % of protection with respect to controls.
Setting [9] is: Rattus norvegicus, 50 mg/kg, read-out: Ulcerations % of protection with respect to controls.

The structures appear in SMILES notation.

For `COc1ccc(C(=O)/C=C/C(=O)O)cc1OC` [Example 1, (E) 4-(3,4-dimethoxyphenyl)-4-oxo-2-butenoic acid], the inhibition in vivo at 0.8 mg/kg in data set [1] (setting [3]) stood at 0%. The inhibition in vivo at 4 mg/kg in data set [1] (setting [4]) is 83%. In addition, the inhibition in vivo at 20 mg/kg in data set [1] (setting [5]) is 100%. The “pH of gastric liquid, treated animals” value is reported as 2.9 in data set [1] (0.8 mg/kg), 2.6 in data set [1] (4 mg/kg) and 4.3 in data set [1] (20 mg/kg). For the same compound, the LD50 in data set [2] was roughly 500 mg/kg.
With `O=C(O)/C=C/C(=O)c1ccc(Cl)cc1` [Example 2, (E) 4-(4-chlorophenyl)-4-oxo-2-butenoic acid], the inhibition in vivo at 1 mg/kg in data set [1] (Rattus norvegicus, 1 mg/kg, read-out: Ulcerations % of protection with respect to controls) stood at 0%. Also, the inhibition in vivo at 5 mg/kg in data set [1] (Rattus norvegicus, 5 mg/kg, read-out: Ulcerations % of protection with respect to controls) was determined as 57%. Besides, in data set [1] (Rattus norvegicus, 25 mg/kg, read-out: Ulcerations % of protection with respect to controls), the inhibition in vivo at 25 mg/kg stood at 100%. In addition, the “pH of gastric liquid, treated animals” value amounted to 3.0 in data set [1] (1 mg/kg), 3.0 in data set [1] (5 mg/kg) and 5.6 in data set [1] (25 mg/kg). The LD50 in data set [2] is roughly 200 mg/kg.
In the case of `O=C(O)/C=C/C(=O)c1ccc(F)cc1` [Example 3, (E) 4-(4-fluorophenyl)-4-oxo-2-butenoic acid], the inhibition in vivo at 0.4 mg/kg in data set [1] (setting [6]) is 20%. Also, the inhibition in vivo at 2 mg/kg in data set [1] (setting [7]) was found to be 43%. In data set [1] (setting [8]), the inhibition in vivo at 10 mg/kg was 100%. The entries for the “pH of gastric liquid, treated animals” value in data set [1] (0.4 mg/kg), in data set [1] (2 mg/kg) and in data set [1] (10 mg/kg) were 3.1, 2.8 and 4.0, respectively. Further, the LD50 in data set [2] is roughly 300 mg/kg.
Regarding `O=C(O)/C=C/C(=O)c1ccc(Cl)c(Cl)c1` [Example 4, (E) 4-(3,4-dichlorophenyl)-4-oxo-2-butenoic acid], the inhibition in vivo at 4 mg/kg in data set [1] (setting [4]) is 14%. In data set [1] (setting [5]), the inhibition in vivo at 20 mg/kg is 71%. The entries for the “pH of gastric liquid, treated animals” value in data set [1] (4 mg/kg) and in data set [1] (20 mg/kg) were 3.1 and 4.1, respectively. Besides, in data set [2], the LD50 is roughly 500 mg/kg.
As for `O=C(O)/C=C/C(=O)c1ccccc1[N+](=O)[O-]` [Example 5, (E) 4-(2-nitrophenyl)-4-oxo-2-butenoic acid], the inhibition in vivo at 4 mg/kg in data set [1] (setting [4]) turned out to be 19%. In addition, the inhibition in vivo at 20 mg/kg in data set [1] (setting [5]) amounted to 100%. Moreover, the entries for the “pH of gastric liquid, treated animals” value in data set [1] (4 mg/kg) and in data set [1] (20 mg/kg) were 3.3 and 4.3, respectively. In addition, in data set [2], the LD50 was roughly 500 mg/kg.
For `O=C(O)/C=C/C(=O)c1ccc(C(F)(F)F)cc1` [Example 6, (E) 4-(4-trifluoromethylphenyl)-4-oxo-2-butenoic acid], the inhibition in vivo at 0.8 mg/kg in data set [1] (setting [3]) turned out to be 20%. In data set [1] (setting [4]), the inhibition in vivo at 4 mg/kg stood at 55%. Besides, the inhibition in vivo at 20 mg/kg in data set [1] (setting [5]) is 67%. In addition, the inhibition in vivo at 100 mg/kg in data set [1] (Rattus norvegicus, 100 mg/kg, read-out: Ulcerations % of protection with respect to controls) was 98%. The “pH of gastric liquid, treated animals” value in data set [1] (0.8 mg/kg) was found to be 1.4; in data set [1] (4 mg/kg), 2.3; in data set [1] (20 mg/kg), 2.8; in data set [1] (100 mg/kg), 6.3. Further, the LD50 in data set [2] was roughly 600 mg/kg.
Consider `COc1ccc(OC)c(C(=O)/C=C/C(=O)O)c1` [Example 7, (E) 4-(2,5-dimethoxyphenyl)-4oxo-2-butenoic acid], for which, in data set [1] (setting [6]), the inhibition in vivo at 0.4 mg/kg came out at 0%. The inhibition in vivo at 2 mg/kg in data set [1] (setting [7]) was 93%. For the same compound, the inhibition in vivo at 10 mg/kg in data set [1] (setting [8]) is 88%. Moreover, the inhibition in vivo at 50 mg/kg in data set [1] (setting [9]) is 100%. Also, the “pH of gastric liquid, treated animals” value in data set [1] (0.4 mg/kg) worked out at 3.0; in data set [1] (2 mg/kg) it was 2.8; in data set [1] (10 mg/kg), 3.0; in data set [1] (50 mg/kg) it was 4.2. Further, in data set [2], the LD50 is roughly 300 mg/kg.
`O=C(O)/C=C/C(=O)c1ccc2c(c1)OCO2` [Example 8, (E) 4-(3,4-methylenedioxyphenyl)-4-oxo-2-butenoic acid]: the inhibition in vivo at 2 mg/kg in data set [1] (setting [7]) is 33%. In addition, in data set [1] (setting [8]), the inhibition in vivo at 10 mg/kg stood at 60%. Besides, the inhibition in vivo at 50 mg/kg in data set [1] (setting [9]) is 100%. Also, the “pH of gastric liquid, treated animals” value turned out to be 3.2 in data set [1] (2 mg/kg), 3.3 in data set [1] (10 mg/kg) and 5.4 in data set [1] (50 mg/kg). This compound also yielded an LD50 in data set [2] of roughly 400 mg/kg.

Source of the values: patent publication US4483868A, “Gastro-protecting activity” (Roussel Uclaf, priority 1980, dated 1984).
